From patent US20220257596A1, “METHODS FOR TREATING MEIBOMIAN GLAND DYSFUNCTION WITH LIVER X RECEPTOR AGONISTS” (Novartis AG, priority 2019, published 2022)

What was measured:
[1] = test system: SCD1 protein production in SZ95-SCD1-HiBit cells; test: Measurement of SCD1 expression in SZ95-SCD1-HiBit cells (HiBiT assay); type: cell-based; settings: Homo sapiens; for EC50: SZ95-SCD1-HiBit cells, 48h incubation, top concentration 18 μM; for Emax: percent compared to the reference compound (Compound H), 48h, read-out: HiBit Amax
Experimental: SZ95-SCD1-HiBit cells were seeded in 384-well cell culture white plates at a density of 3000 cells/30 ul. Water is added to edge wells to avoid evaporation. Cells were incubated in a humidified incubator with 5% CO2 at 37° C. overnight. Tested compounds were diluted at a ratio of 1:3 using Agilent BRAVO Automated Liquid Handling Platform and added to cells at final concentrations starting from 18 μM. Compound H was used as a reference compound in each plate. Cells in the assay plate were incubated in a humidified incubator with 5% CO2 at 37° C. for 48h.
The assay plates were removed from the incubator and allowed to equilibrate to room temperature. Nano-Glo® HiBiT Detection Reagent (Promega; a mixture of Nano-Glo HiBiT Detection Buffer, Nano-Glo HiBiT Detection Substrate, and LgBiT protein) was added into assay plates, at a volume equal to cell culture medium in each well. Plates were placed on an orbital shaker at a speed of 300-600 rpm for 10 min at room temperature, and read on an EnVision Plate Reader using luminescence detection with a 1 second read time.
The assay measures the increase in SCD1 protein production in vitro. Amax refers to the percent […] of the tested compound compared to the reference compound.

[2] = test system: SZ95 (immortalized human sebaceous gland cells) cells; test: Sentinel lipid assay (desaturation index in SZ95 sebocytes); type: cell-based; settings: for EC50: SZ95 cells, 72h incubation, top concentration 10 μM, desaturation index, read-out: SLA EC50; for Emax: percent compared to the reference compound (Compound H), 72h, read-out: SLA Amax
Experimental: SZ95 (immortalized human sebaceous gland cells) cells were seeded in Greiner bio-one 96-well polypropylene plates that were pre-treated with 50 μg/ml Human Plasma Fibronectin (Thermo Fisher Scientific) at a density of 10^4 cells/135 μl. Cells were incubated in a humidified incubator with 5% CO2 at 37° C. overnight. Test compounds were diluted at a ratio of 1:3 and added to cells at final concentrations starting from 10 μM. Compound H was used as a positive control reference compound in each plate. Cells in the assay plate were incubated in a humidified incubator with 5% CO2 at 37° C. for 72h.
Culture medium was removed from the cells and cells in culture plates were washed with ice cold phosphate buffered saline three times. Plates were heat sealed and stored in a −80° C. freezer prior to Sentinel lipid assay.
Sentinel lipid assay: The sentinel lipid assay was used quantify the change in the global desaturation index in SZ95 sebocytes upon administration of LXR agonist compounds. The assay measures a smaller subset of lipid analytes in […] (termed “sentinel lipids”) which would model the global changes the population of both saturated and desaturated lipids in the cells. In order to define this smaller subset of lipids, a complete lipid profile was recorded on dose response curves (eight levels from 4 nM to 10 uM) of Compounds A-N. An elastic net regression model was applied separately to both the saturated and desaturated lipids to determine the minimum combination of coefficients and analytes which could be used to adequately model the total population of lipids. The elastic net model was able to reduce the behavior of 425 lipids to 11 lipids and the correlation between the desaturation indices observed using the complete set of lipids with from the 11 sentinel lipids was 0.96.
A medium throughput assay was created using this reduced set of sentinel lipids. A single batch is defined as triplicate examples of three unique plates (i.e., a single batch of cells is used to create nine plates for LC-MSMS analysis). Lipids were extracted from the cells using a 1:1 mixture of methylene chloride/methanol containing 10 nM of deuterated standards of triglycerides, which are used as internal standards for quantitating the lipid abundance. The lipids were separated prior to mass spectrometric analysis using a five minute HPLC gradient. The abundance of the sentinel lipids and the internal standards are measured using multiple reaction monitor mode (MRM) on a triple quadrupole mass spectrometer. The data was transformed from total ion current to nmoles/10^6 cells, which are multiplied by the coefficients from the elastic net model to determine the effective desaturated and saturated content, and therein the desaturation index of the dosed cells. In order to compare compounds from multiple batches with one another, the measure raw desaturation index was normalized by dividing it by the desaturation index of the DMSO dosed cells, and all data was assessed as the fraction by which the compound increases the desaturation index above 1. The Amax value refers to the percent […] of the tested compound compared to the reference compound.

EC50 [1] [nM]	SMILES	Emax [1] [%]	EC50 [2] [nM]	Emax [2] [%]
2	CC(C)[C@@H]1CN(c2ccc(CO)c(S(C)(=O)=O)c2)CCN1c1ncc(CO)c(C(F)(F)F)n1 [Compound D, (R)-(2-(4-(4-(hydroxymethyl)-3-(methylsulfonyl)phenyl)-2-isopropylpiperazin-1-yl)-4-(trifluoromethyl)pyrimidin-5-yl)methanol]	66.2	41.8	65.6
> 18000	CC(C)(O)c1cn(-c2ccc(-c3cc(F)c(CO)c(S(C)(=O)=O)c3)cc2F)c(C(C)(C)c2c(Cl)cccc2Cl)n1 [Compound I, 2-(2-(2-(2,6-dichlorophenyl)propan-2-yl)-1-(3,3′-difluoro-4′-(hydroxymethyl)-5′-(methylsulfonyl)-[1,1′-biphenyl]-4-yl)-1H-imidazol-4-yl)propan-2-ol]	43.3	4520	60.2
538	CN(C)C(=O)c1ccc(-c2cnc(N3CCN(C(=O)C(C)(C)c4ccccc4)CC3)c(C#N)c2)cc1Cl [Compound K, 2-chloro-4-(5-cyano-6-(4-(2-methyl-2-phenylpropanoyl)piperazin-1-yl)pyridin-3-yl)-N,N-dimethylbenzamide]	66	458	151
> 18000	Fc1ccc(-c2c3cccc(C(F)(F)F)c3nn2Cc2ccc(F)cc2Cl)cc1 [Compound L, 2-(2-chloro-4-fluorobenzyl)-3-(4-fluorophenyl)-7-(trifluoromethyl)-2H-indazole]	48.4	> 10000	33.3

Continued, compound first:

SMILES	EC50 [1] [nM]	Emax [1] [%]	EC50 [2] [nM]	Emax [2] [%]
O=C(O)Cn1ccc2c(OCCCN(Cc3cccc(C(F)(F)F)c3Cl)CC(c3ccccc3)c3ccccc3)cccc21 [Compound A, 2-(4-(3-((2-chloro-3-(trifluoromethyl)benzyl)(2,2-diphenylethyl)amino)propoxy)-1H-indol-1-yl)acetic acid]	4.9	94	7.3	104
CCCc1c(OCCCN(C)c2cnc(CC(=O)O)cn2)ccc2c(C(F)(F)F)noc12 [Compound E, 2-(5-(methyl(3-((7-propyl-3-(trifluoromethyl)benzo[d]isoxazol-6-yl)oxy)propyl)amino)pyrazin-2-yl)acetic acid]	29.4	77.9	69	81.8
O=S(=O)(c1ccccc1)N(CC(F)(F)F)c1ccc(C(O)(C(F)(F)F)C(F)(F)F)cc1 [Compound F, N-(4-(1,1,1,3,3,3-hexafluoro-2-hydroxypropan-2-yl)phenyl)-N-(2,2,2-trifluoroethyl)benzenesulfonamide]	47.4	76.1	190	89.8
O=C(O)Cc1cccc(OCCCN(Cc2cccc(C(F)(F)F)c2Cl)CC(c2ccccc2)c2ccccc2)c1 [Compound H, 2-(3-(3-((2-chloro-3-(trifluoromethyl)benzyl)(2,2-diphenylethyl)amino)propoxy)phenyl)acetic acid]	113	92	88.1	97.4
CCN(Cc1ccccc1)c1ccc(C(O)(C(F)(F)F)C(F)(F)F)cc1Cl [Compound J, 2-(4-(benzyl(ethyl)amino)-3-chlorophenyl)-1,1,1,3,3,3-hexafluoropropan-2-ol]	323	77.5	1470	58
CN(C)C(=O)c1ccc(N2CCC(C3CCN(S(=O)(=O)c4ccccc4Cl)CC3)CC2)cc1Cl [Compound M, 2-chloro-4-(1′-((2-chlorophenyl)sulfonyl)-[4,4′-bipiperidin]-1-yl)-N,N-dimethylbenzamide]	> 18000	39.1	> 10000	29.2
